Laboratory results reported in ChEMBL document CHEMBL4028820, “Novel bioactive molecules from Lentzea violacea strain AS 08 using one strain-many compounds (OSMAC) approach” (Bioorg Med Chem Lett, 2017).
≈ marks a conversion by molar mass, not a printed value.

Key:
A549 = test: Antiproliferative activity against human A549 cells after 48 hrs by MTT assay; format: functional, cell-based; details: A549, 48 h
Bacillus subtilis = test: Antibacterial activity against Bacillus subtilis ATCC 11774 after 20 to 24 hrs by broth microdilution method; format: functional
Pseudomonas aeruginosa = test: Antibacterial activity against Pseudomonas aeruginosa ATCC 10145 after 20 to 24 hrs by broth microdilution method; format: functional
Enterococcus faecalis = test: Antibacterial activity against Enterococcus faecalis ATCC 51299 after 20 to 24 hrs by broth microdilution method; format: functional
Micrococcus luteus = test: Antibacterial activity against Micrococcus luteus ATCC 10240 after 20 to 24 hrs by broth microdilution method; format: functional
[1] = test system: Staphylococcus epidermidis; test: Antibacterial activity against Staphylococcus epidermidis ATCC 12228 after 20 to 24 hrs by broth microdilution method; format: functional
HCT-116 = test: Antiproliferative activity against human HCT116 cells after 48 hrs by MTT assay; format: functional, cell-based; details: HCT-116, 48 h
Staphylococcus aureus = test: Antibacterial activity against Staphylococcus aureus ATCC 25923 after 20 to 24 hrs by broth microdilution method; format: functional
Klebsiella pneumoniae = test: Antibacterial activity against Klebsiella pneumoniae ATCC BAA-2146 after 20 to 24 hrs by broth microdilution method; format: functional
Escherichia coli = test: Antibacterial activity against Escherichia coli ATCC 10536 after 20 to 24 hrs by broth microdilution method; format: functional
T47D = test: Antiproliferative activity against human T47D cells after 48 hrs by MTT assay; format: functional, cell-based
HepG2 = test: Antiproliferative activity against human HepG2 cells after 48 hrs by MTT assay; format: functional, cell-based; details: HepG2, 48 h

## CC(C)CC[C@H](O)[C@@H]1C(=O)OC[C@H]1CO
A549
  IC50: 71.5 µM
Bacillus subtilis
  MIC: 128 µg/mL (≈ 592 µM)
Pseudomonas aeruginosa
  MIC: 32 µg/mL (≈ 148 µM)
Enterococcus faecalis
  MIC: 128 µg/mL (≈ 592 µM)
Micrococcus luteus
  MIC: 128 µg/mL (≈ 592 µM)
[1]
  MIC: 128 µg/mL (≈ 592 µM)
HCT-116
  IC50: 62.3 µM
Staphylococcus aureus
  MIC: 64 µg/mL (≈ 296 µM)
Klebsiella pneumoniae
  MIC: 64 µg/mL (≈ 296 µM)
Escherichia coli
  MIC: 32 µg/mL (≈ 148 µM)
T47D
  IC50: > 100 µM
HepG2
  IC50: > 100 µM

## C[C@H]1COc2c(N3CCN(C)CC3)c(F)cc3c(=O)c(C(=O)O)cn1c23.C[C@H]1COc2c(N3CCN(C)CC3)c(F)cc3c(=O)c(C(=O)O)cn1c23.O [LEVOFLOXACIN]
Bacillus subtilis
  MIC: 0.39 µg/mL
Pseudomonas aeruginosa
  MIC: 0.312 to 0.625 µg/mL
Enterococcus faecalis
  MIC: 0.156 µg/mL
Micrococcus luteus
  MIC: 0.078 µg/mL
[1]
  MIC: 0.039 to 0.078 µg/mL
Staphylococcus aureus
  MIC: 0.078 to 0.156 µg/mL
Klebsiella pneumoniae
  MIC: 2.5 to 5 µg/mL
Escherichia coli
  MIC: 0.078 µg/mL

## O=c1[nH]cc(F)c(=O)[nH]1 [FLUOROURACIL]
A549
  IC50: 15.1 µM
HCT-116
  IC50: 26.2 µM
T47D
  IC50: 12.1 µM
HepG2
  IC50: 20.1 µM

## NCC[C@H](O)C(=O)N[C@@H]1C[C@H](N)[C@@H](O[C@H]2O[C@H](CN)[C@@H](O)[C@H](O)[C@H]2O)[C@H](O)[C@H]1O[C@H]1O[C@H](CO)[C@@H](O)[C@H](N)[C@H]1O [AMIKACIN]
Bacillus subtilis
  MIC: 0.625 µg/mL (≈ 1.07 µM)
Pseudomonas aeruginosa
  MIC: 2.5 µg/mL (≈ 4.27 µM)
Enterococcus faecalis
  MIC: 0.39 µg/mL (≈ 0.666 µM)
Micrococcus luteus
  MIC: 0.39 µg/mL (≈ 0.666 µM)
[1]
  MIC: 2.5 µg/mL (≈ 4.27 µM)
Staphylococcus aureus
  MIC: 2.5 µg/mL (≈ 4.27 µM)
Klebsiella pneumoniae
  MIC: 5 µg/mL (≈ 8.54 µM)
Escherichia coli
  MIC: 0.312 to 0.625 µg/mL (≈ 0.533 to 1.07 µM)

## CCCCOC(=O)c1ccccc1C(=O)OCC(C)C
A549
  IC50: 38 µM
Bacillus subtilis
  MIC: > 128 µg/mL
Pseudomonas aeruginosa
  MIC: > 128 µg/mL
Enterococcus faecalis
  MIC: > 128 µg/mL
Micrococcus luteus
  MIC: > 128 µg/mL
[1]
  MIC: > 128 µg/mL
HCT-116
  IC50: 36.1 µM
Staphylococcus aureus
  MIC: > 128 µg/mL
Klebsiella pneumoniae
  MIC: > 128 µg/mL
Escherichia coli
  MIC: > 128 µg/mL
T47D
  IC50: 48.7 µM
HepG2
  IC50: 53.3 µM

## CC1=C2C(O)C(C(C)CO)CCC2(C)C=CC1=O (stereo unspecified)
A549
  IC50: 22.3 µM
Bacillus subtilis
  MIC: 128 µg/mL (≈ 511 µM)
Pseudomonas aeruginosa
  MIC: 64 µg/mL (≈ 256 µM)
Enterococcus faecalis
  MIC: 128 µg/mL (≈ 511 µM)
Micrococcus luteus
  MIC: 128 µg/mL (≈ 511 µM)
[1]
  MIC: > 128 µg/mL
HCT-116
  IC50: 19.2 µM
Staphylococcus aureus
  MIC: 64 µg/mL (≈ 256 µM)
Klebsiella pneumoniae
  MIC: 32 µg/mL (≈ 128 µM)
Escherichia coli
  MIC: 32 µg/mL (≈ 128 µM)
T47D
  IC50: 26.7 µM
HepG2
  IC50: 38.8 µM
